How the values were obtained:
Assay type in all cases: cell-based
[1] = molecular target: T1, BRD3 (Homo sapiens, UniProt Q15059); assay: Immunoblot of MM.1S multiple myeloma cells; settings: MM.1S cells
T1 construct: endogenous in cells; host or cells: MM.1S multiple myeloma cells
Description: (§1) MM.1S multiple myeloma cells were treated with 0, 1, 5 μM bifunctional compound 1 and 9 or bifunctional compound 20 (0.5 μM, as a positive control, known degrader of BRD) for 14 or 24 h, then lysed and immunoblotted with antibodies to BRD2, BRD3, BRD4 and β-Actin.
(§2) MM.1S multiple myeloma cells were treated with 0, 1, 5 μM bifunctional compound 1 and 9 or bifunctional compound 20 (0.5 μM, as a positive control) for 14 or 24 h, then lysed and immunoblotted with antibodies to BRD2, BRD3, BRD4 and β-Actin.

[2] = molecular target: T2, BRD4 (Homo sapiens, UniProt O60885); assay: Immunoblot of MM.1S multiple myeloma cells; settings: MM.1S cells
T2 construct: endogenous in cells; host or cells: MM.1S multiple myeloma cells
Description: as §1, §2

[3] = molecular target: T3, BRD2 (Homo sapiens, UniProt P25440); assay: Immunoblot of MM.1S multiple myeloma cells; set-up: endogenous in cells; host or cells: MM.1S multiple myeloma cells; settings: MM.1S cells
Description: as §1, §2

[4] = molecular target: T4, BRD2BD2 (Homo sapiens, UniProt P25440); assay: Rescue of degradation in reporter cell line by pre-treatment with inhibitors (compound 1); settings: then concentration series of the degrader for 24 hours
T4 construct: a single BD (BD1 or BD2) of a BRD protein was tagged at the C-terminus with an enhanced Green Fluorescent Protein (eGFP); P2A linker (part left after the co-translational cut; mCherry is released as a separate chain) (C); expressed in transfected cells
From the text: (§3) To evaluate the activity of KEAP1-BRD targeting degraders in the cell, FACS-enabled stable reporter cell lines for single Bromodomain (BD) of the BRD2, 3 and 4 proteins were developed using the pCDNA5/FRT vector of the FLp-In system and followed the manufacturer's protocol.
(§4) A DNA sequence was constructed where a single BD (BD1 or BD2) of a BRD protein was tagged at the C-terminus with an enhanced Green Fluorescent Protein (eGFP). This sequence was followed by a P2A linker and a sequence that codes for mCherry fluorescent protein. The P2A linker that is located between the eGFP-tagged protein and the mCherry causes a single cut in the backbone amide bonds of the polypeptide during the translation of the mRNA, resulting in generation of two polypeptide chains, an eGFP-tagged protein and a mCherry protein. The expression level of these two polypeptides is therefore identical as they originate from a single mRNA, making the mCherry signal an expression level reporter as an internal reference. […]
(§5) The treated cells were then harvested by trypsin digest, brought to a volume of 200 μL with DMEM medium supplemented with 10% FBS and transferred to a 96-well assay plate for FACS reading. The eGFP/RFP ratio for each condition was then calculated and normalized against the zero-compound condition and plotted.
The rescue of BRD2BD2 degradation with two inhibitors JQ1 and MLN4924 was then determined. […]

[5] = test system: BRD2-BD1, BRD2-BD2, BRD3-BD1, BRD3-BD2, BRD4-BD1, BRD4-BD2 as GFP fusion proteins; assay: FACS eGFP/mCherry reporter cell lines for single bromodomains, degradation compared across bromodomains; settings: concentration series starting at 20 μM, 5× dilution, 24 hours at 37° C.
From the text: as §3, §4
as §5, with “plotted. […]” for “plotted.”

[6] = molecular target: T5, BRD2^BD1 (Homo sapiens, UniProt P25440); assay: Rescue of degradation in reporter cell line by pre-treatment with inhibitors (compound 9); settings: pre-treated with 10 μM JQ1 for 1 hour, then concentration series of the degrader for 24 hours
T5 construct: a single BD (BD1 or BD2) of a BRD protein was tagged at the C-terminus with an enhanced Green Fluorescent Protein (eGFP); P2A linker (part left after the co-translational cut; mCherry is released as a separate chain) (C); expressed in transfected cells
From the text: as §3
(§6) A DNA sequence was constructed where a single BD (BD1 or BD2) of a BRD protein was tagged at the C-terminus with an enhanced Green Fluorescent Protein (eGFP). This sequence was followed by a P2A linker and a sequence that codes for mCherry fluorescent protein. The P2A linker that is located between the eGFP-tagged protein and the mCherry causes a single cut in the backbone amide bonds of the polypeptide during the translation of the mRNA, resulting in generation of two polypeptide chains, an eGFP-tagged protein and a mCherry protein. The expression level of these two polypeptides is therefore identical as they originate from a single mRNA, making the mCherry signal an expression level reporter as an internal reference.
(§7) The reporter cell lines were seeded on a 48-well plate the day before. […]
as §5, with “plotted. […]” for “plotted.”

[7] = molecular target: T6, BRD2^BD1 (Homo sapiens, UniProt P25440+Q14145); assay: as above; settings: pre-treated with 10 μM MLN4924 for 1 hour, then concentration series of the degrader for 24 hours
T6 construct: a single BD (BD1 or BD2) of a BRD protein was tagged at the C-terminus with an enhanced Green Fluorescent Protein (eGFP); P2A linker (part left after the co-translational cut; mCherry is released as a separate chain) (C); expressed in transfected cells
From the text: as §3, §6, §7
as §5, with “plotted. […]” for “plotted.”

[8] = molecular target: T3, BRD2; assay: TMT quantitative proteomics, change in relative protein abundance in HEK293T cells; set-up: endogenous in cells; host or cells: HEK293T cells; settings: 5 μM, 6 hours
Description: Lysis buffer (8 M Urea, 50 mM NaCl, 50 mM 4-(2hydroxyethyl)-1-piperazineethanesulfonic acid (EPPS) pH 8.5. Protease and Phosphatase inhibitors from Roche) was added to the cell pellets and homogenized by 20 passes through a 21 gauge (1.25 in. long) needle to achieve a cell lysate with a protein concentration between 1-4 mg/mL. A micro-BCA assay (Pierce™) was used to determine the final protein concentration in the cell lysate. 200 μg of protein for each sample were reduced and alkylated as previously described. Proteins were precipitated using methanol/chloroform. In brief, four volumes of methanol were added to the cell lysate, followed by one volume of chloroform, and finally three volumes of water. The mixture was vortexed and centrifuged to separate the chloroform phase from the aqueous phase. […]
Precipitated protein was resuspended in 4 M urea, 50 mM HEPES pH 7.4, followed by dilution to 1 M urea with the addition of 200 mM EPPS, pH 8. […] The sample channels were combined at a 1:1:1:1:1:1:1:1:1:1 ratio, desalted using C18 solid phase extraction cartridges (Waters™) and analyzed by LC-MS for channel ratio comparison.
Samples were then combined using the adjusted volumes determined in the channel ratio analysis and dried down in a speed vacuum. […]

T1 sequence (Q15059 whole entry): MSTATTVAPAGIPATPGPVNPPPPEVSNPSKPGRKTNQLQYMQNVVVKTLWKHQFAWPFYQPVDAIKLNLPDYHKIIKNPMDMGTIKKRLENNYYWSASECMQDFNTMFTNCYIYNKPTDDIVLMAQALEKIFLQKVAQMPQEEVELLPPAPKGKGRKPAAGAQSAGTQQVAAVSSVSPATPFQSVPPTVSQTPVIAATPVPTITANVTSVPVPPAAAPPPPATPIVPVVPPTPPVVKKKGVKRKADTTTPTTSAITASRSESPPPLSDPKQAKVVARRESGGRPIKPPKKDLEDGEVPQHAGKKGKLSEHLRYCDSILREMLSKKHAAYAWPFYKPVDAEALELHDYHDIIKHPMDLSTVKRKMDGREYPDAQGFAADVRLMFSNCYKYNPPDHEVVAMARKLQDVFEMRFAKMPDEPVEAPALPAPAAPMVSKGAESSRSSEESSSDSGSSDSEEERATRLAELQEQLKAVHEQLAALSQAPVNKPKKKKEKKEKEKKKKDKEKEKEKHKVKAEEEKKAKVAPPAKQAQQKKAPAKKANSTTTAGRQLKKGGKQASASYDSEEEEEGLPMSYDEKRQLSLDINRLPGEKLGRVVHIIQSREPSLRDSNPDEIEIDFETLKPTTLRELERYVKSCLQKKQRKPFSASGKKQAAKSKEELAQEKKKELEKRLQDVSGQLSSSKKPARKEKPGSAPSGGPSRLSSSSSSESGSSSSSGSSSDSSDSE
T3 sequence (P25440 whole entry): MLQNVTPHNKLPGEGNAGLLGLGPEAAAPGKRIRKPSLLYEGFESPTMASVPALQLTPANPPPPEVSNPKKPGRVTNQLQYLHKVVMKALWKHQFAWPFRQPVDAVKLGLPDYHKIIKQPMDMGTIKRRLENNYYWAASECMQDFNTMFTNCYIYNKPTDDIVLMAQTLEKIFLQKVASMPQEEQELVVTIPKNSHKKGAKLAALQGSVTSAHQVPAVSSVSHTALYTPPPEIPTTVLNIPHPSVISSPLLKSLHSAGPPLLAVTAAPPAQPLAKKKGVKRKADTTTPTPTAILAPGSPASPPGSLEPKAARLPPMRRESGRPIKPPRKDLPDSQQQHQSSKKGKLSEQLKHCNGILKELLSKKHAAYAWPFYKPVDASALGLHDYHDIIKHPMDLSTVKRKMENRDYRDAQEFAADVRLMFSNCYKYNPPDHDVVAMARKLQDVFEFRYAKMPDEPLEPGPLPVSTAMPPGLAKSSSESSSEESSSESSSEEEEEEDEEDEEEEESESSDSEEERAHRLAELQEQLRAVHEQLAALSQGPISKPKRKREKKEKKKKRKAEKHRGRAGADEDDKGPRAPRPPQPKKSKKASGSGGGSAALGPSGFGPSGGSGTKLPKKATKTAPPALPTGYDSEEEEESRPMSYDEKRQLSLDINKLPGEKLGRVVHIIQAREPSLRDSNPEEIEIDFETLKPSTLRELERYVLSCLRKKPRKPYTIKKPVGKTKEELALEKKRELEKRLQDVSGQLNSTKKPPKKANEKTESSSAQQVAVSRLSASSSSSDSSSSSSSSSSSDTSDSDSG
T4 sequence (P25440 344-453): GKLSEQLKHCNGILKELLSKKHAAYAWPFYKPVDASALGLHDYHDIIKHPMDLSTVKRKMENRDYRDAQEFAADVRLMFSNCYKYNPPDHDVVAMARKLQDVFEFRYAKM
T5 sequence (P25440 74-180 limits assumed): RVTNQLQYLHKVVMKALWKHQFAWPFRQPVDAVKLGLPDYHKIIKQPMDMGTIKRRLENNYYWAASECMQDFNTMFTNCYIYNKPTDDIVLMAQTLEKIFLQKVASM
T5 sequence (Q14145 whole entry, further chain): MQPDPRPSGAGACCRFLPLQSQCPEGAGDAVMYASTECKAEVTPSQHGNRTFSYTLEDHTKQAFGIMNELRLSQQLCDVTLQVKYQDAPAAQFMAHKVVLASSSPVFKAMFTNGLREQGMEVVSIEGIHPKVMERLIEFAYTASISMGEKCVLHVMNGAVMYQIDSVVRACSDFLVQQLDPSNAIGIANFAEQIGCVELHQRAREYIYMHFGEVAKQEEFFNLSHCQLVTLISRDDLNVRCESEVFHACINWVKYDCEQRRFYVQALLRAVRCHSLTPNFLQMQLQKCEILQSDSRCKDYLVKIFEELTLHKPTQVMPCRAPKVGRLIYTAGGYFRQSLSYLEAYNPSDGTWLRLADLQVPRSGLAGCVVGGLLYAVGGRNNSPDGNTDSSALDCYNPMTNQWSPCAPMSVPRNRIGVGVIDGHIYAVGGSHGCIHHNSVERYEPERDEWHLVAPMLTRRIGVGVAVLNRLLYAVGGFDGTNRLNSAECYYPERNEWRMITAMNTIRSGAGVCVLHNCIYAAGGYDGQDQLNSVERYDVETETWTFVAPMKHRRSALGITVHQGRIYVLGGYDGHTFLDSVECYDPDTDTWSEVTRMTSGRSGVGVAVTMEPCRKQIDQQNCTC
T6 sequence (P25440 74-180 limits assumed): as the sequence (P25440 74-180 limits assumed) above
T6 sequence (Q14145 whole entry): as the sequence (Q14145 whole entry, further chain) above

Compound	degradation of BRD3 (immunoblot) ([1]; 1 μM, both 14 and 24 h)	degradation of BRD3 (immunoblot), hook effect ([1]; 5 μM, 14 or 24 h)	degradation of BRD4 (immunoblot) ([2]; 1 μM, both 14 and 24 h)	degradation of BRD4 (immunoblot), hook effect ([2]; 5 μM, 14 or 24 h)	degradation of BRD2 (immunoblot) ([3]; 1 μM, both 14 and 24 h)	degradation of BRD2 (immunoblot), hook effect ([3]; 5 μM, 14 or 24 h)	rescue of BRD2BD2 degradation by JQ1 ([4]; pre-treated with 10 μM JQ1 for 1 hour)	rescue of BRD2BD2 degradation by MLN4924 ([4]; pre-treated with 10 μM MLN4924 for 1 hour)	degradation of BRD bromodomain reporters (normalized eGFP/RFP ratio), comparison between bromodomains [5]	degradation of BRD3 (immunoblot) ([1]; 5 μM, 24 h)	degradation of BRD4 (immunoblot) ([2]; 5 μM, 24 h)	degradation of BRD2 (immunoblot) ([3]; 5 μM, 24 h)	rescue of BRD2^BD1 degradation by JQ1 [6]	rescue of BRD2^BD1 degradation by MLN4924 [7]	BRD2 degradation (relative protein abundance vs DMSO) [8]
COc1cc(C(CC(=O)O)c2ccc(C)c(CN3C[C@@H](C)Oc4cc(CCCCCCNC(=O)C[C@@H]5N=C(c6ccc(Cl)cc6)c6c(sc(C)c6C)-n6c(C)nnc65)ccc4S3(=O)=O)c2)cc2nnn(C)c12 (stereo partly drawn) [compound 1, 3-(3-(((R)-7-(6-(2-((S)-4-(4-chlorophenyl)-2,3,9-trimethyl-6H-thieno[3,2-f][1,2,4]triazolo[4,3-a][1,4]diazepin-6-yl)acetamido)hexyl)-4-methyl-1,1-dioxido-3,4-dihydro-2H-benzo[b][1,4,5]oxathiazepin-2-yl)methyl)-4-methylphenyl)-3-(7-methoxy-1-methyl-1H-benzo[d][1,2,3]triazol-5-yl)propanoic acid]	strongly induced the degradation	a decrease in BRD2, BRD3 and BRD4 degradation were observed	strongly induced the degradation	a decrease in BRD2, BRD3 and BRD4 degradation were observed	slightly decreased the abundance	a decrease in BRD2, BRD3 and BRD4 degradation were observed	can be rescued by JQ1	rescued by the neddylation inhibitor, MLN4924	with the exception of BRD4BD1, bifunctional compound 1 targeted BRD-BD proteins with similar efficiency	–	–	–	–	–	–
COc1cc(C(CC(=O)O)c2ccc(C)c(CN(C)S(=O)(=O)c3ccc(OCCCCCCNC(=O)C[C@@H]4N=C(c5ccc(Cl)cc5)c5c(sc(C)c5C)-n5c(C)nnc54)cc3)c2)cc2nnn(C)c12 (stereo partly drawn) [compound 9, 3-(3-((4-(6-(2-((6S)-4-(4-chlorophenyl)-2,3,9-trimethyl-6H-thieno[3,2-f][1,2,4]triazolo[4,3-a][1,4]diazepin-6-yl)acetamido)hexyloxy)-N-methylphenylsulfonamido)methyl)-4-methylphenyl)-3-(7-methoxy-1-methyl-1H-benzo[d][1,2,3]triazol-5-yl)propanoic acid]	–	–	–	–	–	–	–	–	modest preference for BRD2^BD1 and BRD4^BD1	slightly degraded	slightly degraded	slightly degraded	can be rescued by JQ1	rescued by the neddylation inhibitor, MLN4924	BRD2 degradation was observed
